Experimental data: paper PMC9699072 (Molecules, 2022)
Values joined by “and” are separate entries in the source; they are usually repeats but may differ in a detail not shown here. Equal values may be shown once. Where a name gives a salt, the structure may show the parent alone.

How the values were obtained:
[1] = FRAP (ferric reducing antioxidant power) assay; type: biochemical; details: for FRAP TE (Trolox equivalent): mean ± SEM, n = 3, 1 h, 37 °C, pH 3.6
Experimental: The FRAP (ferric reducing antioxidant power) assay measures the ability of antioxidants to reduce the ferric 2,4,6-tripyridyl-s-triazine complex [Fe(TPTZ)2]^3+ to the intensely blue ferrous complex [Fe(TPTZ)2]^2+ in an acidic medium. The measurements were performed as previously described in detail. The results are expressed as TE (Trolox equivalents).
The FRAP (ferric reducing antioxidant power) assay measures the ability of antioxidants to reduce the ferric 2,4,6-tripyridyl-s-triazine complex [Fe (TPTZ)2]^3+ to the intensely blue ferrous complex [Fe (TPTZ)2]^2+ (λ = 593 nm) in acidic medium. 2,4,6-Tris(pyridin-2-yl)-1,3,5-triazine (TPTZ), FeCl3·6H2O, Trolox, quercetin and DMSO were obtained from Sigma-Aldrich Chemical Co. (St. Louis, MO, USA). The FRAP reagent contained 2.5 mL of 10 mM TPTZ solution in 40 mM HCl, 2.5 mL of 20 mM FeCl3·6H2O water solution, and 25 mL of 0.3 M acetate buffer (pH 3.6). Aliquots of 10 µL of the test compound solution in DMSO (0.5 mM) were mixed with 240 µL of FRAP reagent, and the absorbance of the mixture was measured spectrophotometrically (FLUOStar OPTIMA microplate spectrophotometer (BMG Labtech, Ortenberg, Germany)) at 600 nm after 1 h incubation at 37 °C against a blank. Trolox was used as a reference compound. Quercetin was used as a positive control. A calibration curve with linear formula y = 0.03x (R^2 = 0.998, p < 0.0001) was prepared for Trolox solutions in DMSO at a range of 2.5–100 µM, and the results are expressed as Trolox equivalents (TE), the values calculated as the ratio of the concentrations of Trolox and the test compound, resulting in the same effect.

[2] = ORAC-FL (oxygen radical absorbance capacity) assay; type: biochemical; details: mean ± SEM, n = 3, 2 h, 10 μM compound and Trolox
Description: In the oxygen radical absorbance capacity (ORAC-FL) assay, 2,2′-azobis-(2-methylpropionamidine) dihydrochloride (AAPH) is used as a free peroxyl radical generator, and fluorescein (FL) is used as a fluorescent probe. The method is based on measuring the decrease in the intensity of fluorescence with time, which characterizes the degree of decay of the fluorescent probe under the influence of peroxyl radicals. In the presence of antioxidants, the degree of decay of the fluorescent probe decreases and, accordingly, the fluorescence intensity increases. The results are expressed as TE (Trolox equivalents).
The ORAC assay utilizes a biologically relevant radical source, 2,2′-azobis(2-amidinopropane) dihydrochloride (AAPH)-derived peroxyl radicals. Thus, it is a more physiologically relevant assay than ABTS and FRAP.
The oxygen radical absorbance capacity (ORAC) was determined by the ability of compounds to protect fluorescein (FL) from peroxyl radicals that are generated by AAPH according to the known method with minor variations. The reaction was carried out at 37 °C in black 96-well plates (SPL life sciences), and the final volume of the reaction mixture was 200 µL per well. The fluorescence was recorded by Tecan M1000 PRO microplate reader (Switzerland) at 485 nm excitation and 520 nm emission.
The 0.7 mM fluorescein sodium salt stock solution in PBS pH 7.4 (137 mM sodium chloride, 2.7 mM potassium chloride, and 10 mM phosphate buffer) was prepared and stored at 4–5 °C no longer than one month. An aliquot of the fluorescein stock solution was further diluted with PBS immediately before each assay to yield a 70 nM working solution. The 133 mM AAPH solution in PBS was prepared immediately before use. The test compounds and Trolox standard were dissolved in DMSO to 400 μM. The final concentration was 10 μM for all of the samples.
The blank was composed of 15 μL PBS pH 7.4, 5 μL DMSO (final concentration: 2.5% (v/v)), 120 μL FL, and 60 μL AAPH, and it was included in each assay. PBS pH 7.4 (15 μL), antioxidant (the test compound or Trolox, 5 μL), and FL (120 μL, final concentration: 42 nM) solutions were placed in a black 96-well microplate and were pre-incubated for 15 min at 37 °C. AAPH solution (60 μL, final concentration 40 mM) was then added rapidly using a multichannel pipette. The fluorescence was recorded every minute for 2 h. A Trolox standard curve was also obtained in each assay. All reactions were carried out in quadruplicate, and two to four independent assays were performed for each sample.
Antioxidant curves (fluorescence vs. time) were first normalized to the curve of the blank (without antioxidant) corresponding to the same assay, and the net AUC corresponding to a sample was calculated by subtracting the AUC corresponding to the blank. The ORAC value was obtained by dividing the latter curve by the Trolox curve obtained in the same assay at 10 μM concentrations of compounds and Trolox. Final ORAC values, Trolox equivalents (TE), were expressed as μmol test compounds per μmol Trolox, where the value of TE for Trolox was taken as 1. Data were expressed as means ± SEM.

| Compound | FRAP TE (Trolox equivalent) [1] | ORAC-FL TE (Trolox equivalent) [2] | FRAP TE (Trolox equivalent) ([1]; listed as APH) | ORAC-FL TE (Trolox equivalent) ([2]; listed as APH) | Ferric reducing activity lower than that of EDA ([1]; FRAP test, relative to EDA) |
| --- | --- | --- | --- | --- | --- |
| 3-methyl-1-phenyl-2-pyrazolin-5-one [EDA, reference compound] | 0.80 ± 0.01 TE | 3.71 TE and 3.71 ± 0.06 TE |  |  |  |
| O=C1NN=C(C(F)(F)F)/C1=N/O [1e] | 0.07 ± 0.01 TE | 0.98 ± 0.03 TE |  |  |  |
| O=C1NN=C(C(F)(F)C(F)(F)F)/C1=N/O [1g] | 0.13 ± 0.01 TE | 1.87 ± 0.04 TE |  |  |  |
| CC1=NNC(=O)/C1=N\O [1j] | 0.09 ± 0.01 TE | 2.85 ± 0.28 TE |  |  |  |
| Cl.Nc1c(C(F)(F)F)nn(-c2ccccc2)c1O [4a, 4-Amino-3-(trifluoromethyl)-1-phenyl-1H-pyrazol-5-ol hydrochloride] | 0.89 ± 0.05 TE | 3.49 TE and 3.49 ± 0.16 TE |  |  |  |
| Cl.Nc1c(C(F)(F)C(F)(F)F)nn(-c2ccccc2)c1O.O [4b, 4-Amino-3-(pentafluoroethyl)-1-phenyl-1H-pyrazol-5-ol hydrate hydrochloride] | 0.75 ± 0.07 TE | 2.12 ± 0.17 TE |  |  |  |
| Nc1c(C(F)(F)C(F)(F)C(F)(F)C(F)(F)F)nn(-c2ccccc2)c1O [4c, 5-Hydroxy-1-phenyl-3-(nonafluorobuthyl)-1H-pyrazol-4-ammonium hydrochloride] | 0.98 ±0.05 TE | 2.82 ± 0.2 TE |  |  |  |
| Cc1nn(-c2ccccc2)c(O)c1N.Cl.O [4d, 4-Amino-3-methyl-1-phenyl-1H-pyrazol-5-ol hydrochloride hydrate] | 0.98 ± 0.08 TE | 4.39 ± 0.04 TE | 0.98 TE | 4.39 TE |  |
| Cl.Nc1c(C(F)(F)F)n[nH]c1O [4e, 4-Amino-3-(trifluoromethyl)-1H-pyrazol-5-ol hydrochloride] | 1.02 ± 0.02 TE | 0.90 ± 0.19 TE |  |  |  |
| Cl.Nc1c(C(F)(F)C(F)(F)F)n[nH]c1O.O [4g, 4-Amino-3-(pentafluoroethyl)-1H-pyrazol-5-ol hydrate hydrochloride] | 0.88 ± 0.04 TE | 0.54 ± 0.03 TE |  |  |  |
| Cl.Nc1c(C(F)(F)C(F)(F)C(F)(F)F)n[nH]c1O.O [4h, 4-Amino-3-(heptafluoropropyl)-1H-pyrazol-5-ol hydrate hydrochloride] | 1.03 ± 0.04 TE | 0.63 ± 0.04 TE |  |  |  |
| Cl.Nc1c(C(F)(F)C(F)(F)C(F)(F)C(F)(F)F)n[nH]c1O.O [4i, 4-Amino-3-(nonafluorobutyl)-1H-pyrazol-5-ol hydrate hydrochloride] | 0.75 ± 0.05 TE | 1.83 ± 0.02 TE |  |  |  |
| Cc1n[nH]c(O)c1N.Cl [4j, 4-Amino-3-methyl-1H-pyrazol-5-ol hydrochloride] | 1.04 ± 0.04 TE | 2.06 ± 0.16 TE |  |  |  |
| Oc1cc(C(F)(F)F)nn1-c1ccccc1 [CF3-EDA, 3-trifluoromethyl-1-phenylpyrazol-5-ol, reference compound] | 0.63 ± 0.03 TE | 3.89 TE and 3.89 ± 0.04 TE |  |  | 20% |
